Columns and labels:
HCV genotype 1b replicon = test: HCV replicon assay (Zluc luciferase); format: cell-based; conditions: Zluc cells, 72 hours; read-out: HCV Replicon EC50
Summary of the method: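 Zluc Huh-7 cells with HCV genotype 1b replicon and luciferase reporter treated with 5-fold dilutions (100 μM to 0.0000512 μM final) in duplicate, or at 1 and 10 μM. Luminescence read with ONE-glo; EC50 from dose-response fits, or % inhibition at the fixed concentrations.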

[1] = Stability in simulated gastric fluid; format: in vitro ADME; conditions: simulated gastric fluid with pepsin, 100 μM, 2 hours, 37° C.
Protocol: Stability in Simulated Gastric and Intestinal Fluids: Simulated gastric and intestinal fluids containing pepsin and pancreatin respectively were prepared according to the U.S. Pharmacopoeia USP291 procedure(www.pharmacopeia.cn/v29240/usp29nf24s0_ris1s126.html). Each test compound (final concentration 100 μM) was incubated in duplicate in the appropriate fluid for 2 hours at 37° C. The samples were quenched with […] cold acetonitrile, vortexed for 30 seconds and then centrifuged at 16100×g for 10 min. The supernatants were analyzed by HPLC on a C-18 column with UV detection at 252 nm. The time zero samples were prepared by adding SGF or SIF fluid to the quenching solvent followed by the test compound. Stability of the compound was determined by peak area of the test compound after incubation and calculated as percent of the peak area observed at time zero.

[2] = Stability in liver microsomes; format: in vitro ADME; conditions: human liver microsomes 1.0 mg/mL, 10 μM, NADPH, 60 min
Protocol: (§1) Stability of test compounds were determined in human liver and intestinal microsomes in duplicate for each matrix. Pooled liver and intestinal microsomal proteins (1.0 mg/mL), suspended in incubation buffer (100 mM potassium phosphate, pH 7.4, 5 mM MgCl2, and 0.1 mM EDTA), were preincubated for 5 min at 37° C. with 10 μM of a test compound from a 10 mM stock solution in DMSO (final DMSO concentration was 0.1%); the reaction was initiated by the addition of NADPH (3 mM final concentration). At specific times (0 and 60 min), 0.1 mL samples were taken and the reaction terminated by the addition of 4 volumes of stop solution (acetonitrile with 500 ng/mL carbutamide as an internal standard). The samples were vortexed for 30 sec and then centrifuged at 16000×g for 10 min. 100 μL of supernatants were transferred to 96 deep-well plates preloaded with 100 μL distilled water and analyzed after mixing by LC-MS/MS. The MS peak area ratio of the test compound versus the internal standard was calculated and percent unchanged test compound over 60 minutes was calculated using this ratio.

[3] = Stability in intestinal microsomes; format: in vitro ADME; conditions: human intestinal microsomes 1.0 mg/mL, 10 μM, NADPH, 60 min
Protocol: as §1

Huh-7 cells = test: Release of active metabolite in Huh-7 cells; format: in vitro ADME
Protocol: Huh-7 cells were plated in 1 mL culture medium (DMEM, containing glucose, L-glutamine and sodium pyruvate, 10% FBS, 100 IU/mL penicillin, 100 μg/mL streptomycin, 2 mM GlutaMAX, 1% MEM non-essential amino acids) at the concentration 0.8, 0.4 and 0.2 million cells per well on 6 well plates for 24, 48 and 72 hr treatment, respectively. Plated cells were incubated overnight at 37° C. in an incubator.
The following morning test compound was diluted to 20 μM from a stock solution in DMSO in fresh culture medium pre-warmed to 37° C. and 1 mL of the solution/well was added to cells. A final medium volume per well was 2.0 mL, test compound concentration in well was 10 μM and final DMSO concentration was 0.1%.
After 24, 48 or 72 hr, the medium was carefully removed and cell monolayers were washed twice with 2 mL ice-cold PBS per well. Following the last wash, all PBS was carefully removed and 1.0 mL of extraction solution (ice-cold 70% methanol) added. The plate was tightly covered with Parafilm, plastic plate cover and Parafilm again and an intracellular content was extracted at −20° C. for 24 hr.
After 24 hr the extracts were transferred into polypropylene microfuge tubes and dry on a refrigerated centrivap concentrator. Dry residues were reconstituted in 250 μL of HPLC-grade water and centrifuged at 16,000×g for 10 min. Aliquots (100 μL each) of the supernatants were transferred into a 96 well plate and internal standard (4 ng/mL final concentration) was added as the internal standard (IS) for LC-MS/MS analysis.

[4] = Plasma nucleoside pharmacokinetics after single oral dose in CD-1 mice; format: in vivo; conditions: single oral dose 10 mg/kg in PEG 200;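 for Ms Plasma nucleoside AUC: pmol·h/mL plasma normalized to a 1 µmol/kg dose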
Summary of the method: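 Mouse plasma was extracted by acetonitrile/0.2% formic acid protein precipitation using 2′-MeG-D3 or tiapride as internal standard. Nucleoside was quantified by positive-ion LC-MS/MS after C18 gradient separation. Calibration spanned 0.500 (LLOQ) to 200 ng/mL.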

CC(C)OC(=O)[C@H](C)NP(=O)(OC[C@H]1O[C@@H](n2ccc(=O)[nH]c2=O)[C@](C)(Cl)[C@@H]1O)Oc1ccccc1 (single isomer, unassigned) [Compound 40ii Diastereomer 2]
EC50 (HCV genotype 1b replicon): < 250 nM | SGF stability (percent remaining) [1]: ++++ (75% < ++++) | HLM (1 hr) stability (percent remaining) [2]: ++ (25% < ++ ≤ 50%) | HIM (1 hr) stability (percent remaining) [3]: ++++ (75% < ++++) | Huh-7 TP AUC (Huh-7 cells; 10 μM): ++++ (1500 < ++++) | Huh-7 TP Cmax (Huh-7 cells; 10 μM test compound): ++++ (100 < ++++) | Huh-7 TP (24 hr) (Huh-7 cells; 10 μM, 24 hr): ++++ (100 < ++++) | Huh-7 TP (48 hr) (Huh-7 cells; 10 μM, 48 hr): ++++ (100 < ++++) | Huh-7 TP (72 hr) (Huh-7 cells; 10 μM, 72 hr): ++++ (100 < ++++) | Ms Plasma nucleoside AUC [4]: +++ (500 < +++ ≤ 1500) | Ms Plasma nucleoside Cmax [4]: +++ (50 < +++ ≤ 100)

Source: US10513534B2, “2′-chloro nucleoside analogs for HCV infection” (priority 2012, dated 2019)
